From the NIST ThermoML archive (doi:10.1016/j.jct.2007.11.002)
± gives the expanded uncertainty stated by the source.

Assay: xn = mol fraction of the nth substance listed
Conditions: 101 kPa, Liquid; for viscosity: Capillary tube (Ostwald / Ubbelohde) method

CN1CCOCC1 [N-methylmorpholine] + C1CCCCC1
Conditions | mass density, 298.15 K [kg/m3] | mass density, 303.15 K [kg/m3] | mass density, 313.15 K [kg/m3] | mass density, 323.15 K [kg/m3] | viscosity, 298.15 K [mPa·s] | viscosity, 303.15 K [mPa·s] | viscosity, 313.15 K [mPa·s] | viscosity, 323.15 K [mPa·s]
x2 = 0.0453 | 907.59 ± 1 | 902.83 ± 1 | 893.49 ± 1.1 | 874.42 ± 1.1 | 0.868 ± 0.012 | 0.854 ± 0.011 | 0.824 ± 0.011 | 0.802 ± 0.011
x2 = 0.1276 | 895.48 ± 1 | 890.66 ± 1 | 882.09 ± 1 | 863.12 ± 1 | 0.85 ± 0.011 | 0.838 ± 0.011 | 0.803 ± 0.011 | 0.778 ± 0.01
x2 = 0.1689 | 889.43 ± 0.98 | 884.59 ± 0.98 | 876.36 ± 0.99 | 857.48 ± 1 | 0.84 ± 0.011 | 0.828 ± 0.011 | 0.792 ± 0.01 | 0.764 ± 0.01
x2 = 0.2217 | 881.74 ± 0.96 | 876.96 ± 0.96 | 869.02 ± 0.97 | 850.4 ± 1 | 0.83 ± 0.011 | 0.814 ± 0.011 | 0.779 ± 0.01 | 0.75 ± 0.01
x2 = 0.2763 | 873.94 ± 0.94 | 869.13 ± 0.94 | 861.42 ± 0.95 | 843.13 ± 0.98 | 0.824 ± 0.01 | 0.804 ± 0.01 | 0.765 ± 0.01 | 0.732 ± 0.01
x2 = 0.3217 | 867.42 ± 0.92 | 862.66 ± 0.93 | 855.1 ± 0.94 | 837.1 ± 0.96 | 0.821 ± 0.01 | 0.797 ± 0.01 | 0.755 ± 0.01 | 0.718 ± 0.01
x2 = 0.3873 | 857.99 ± 0.9 | 853.23 ± 0.91 | 845.94 ± 0.92 | 828.33 ± 0.95 | 0.819 ± 0.01 | 0.791 ± 0.01 | 0.742 ± 0.01 | 0.701 ± 0.009
x2 = 0.4326 | 851.46 ± 0.89 | 846.82 ± 0.9 | 839.61 ± 0.91 | 822.36 ± 0.94 | 0.819 ± 0.01 | 0.786 ± 0.01 | 0.736 ± 0.009 | 0.691 ± 0.009
x2 = 0.4833 | 844.29 ± 0.88 | 839.67 ± 0.89 | 832.51 ± 0.9 | 815.69 ± 0.93 | 0.821 ± 0.01 | 0.784 ± 0.01 | 0.729 ± 0.009 | 0.681 ± 0.009
x2 = 0.5218 | 838.78 ± 0.87 | 834.2 ± 0.88 | 827.11 ± 0.89 | 810.59 ± 0.92 | 0.824 ± 0.01 | 0.784 ± 0.01 | 0.726 ± 0.009 | 0.673 ± 0.009
x2 = 0.5844 | 829.95 ± 0.86 | 825.42 ± 0.87 | 818.32 ± 0.88 | 802.4 ± 0.91 | – | 0.785 ± 0.009 | 0.721 ± 0.009 | 0.665 ± 0.009
x2 = 0.5943 | – | – | – | – | 0.829 ± 0.01 | – | – | –
x2 = 0.6328 | 823.16 ± 0.85 | 818.66 ± 0.86 | 811.52 ± 0.87 | 796.08 ± 0.9 | – | 0.786 ± 0.009 | 0.719 ± 0.009 | 0.659 ± 0.009
x2 = 0.6341 | – | – | – | – | 0.835 ± 0.01 | – | – | –
x2 = 0.6877 | – | – | – | – | 0.842 ± 0.01 | – | – | –
x2 = 0.6911 | 815.03 ± 0.85 | 810.51 ± 0.86 | 803.31 ± 0.87 | 788.47 ± 0.9 | – | 0.789 ± 0.009 | 0.717 ± 0.009 | 0.653 ± 0.008
x2 = 0.7129 | – | – | – | – | 0.847 ± 0.009 | – | – | –
x2 = 0.7428 | 807.87 ± 0.84 | 803.38 ± 0.85 | 796.01 ± 0.86 | 781.8 ± 0.89 | – | 0.79 ± 0.009 | 0.714 ± 0.009 | 0.646 ± 0.008
x2 = 0.7648 | – | – | – | – | 0.855 ± 0.009 | – | – | –
x2 = 0.7895 | – | – | – | – | 0.861 ± 0.009 | – | – | –
x2 = 0.7944 | 800.77 ± 0.84 | 796.31 ± 0.85 | 788.72 ± 0.86 | 775.2 ± 0.89 | – | 0.794 ± 0.009 | 0.71 ± 0.009 | 0.638 ± 0.008
x2 = 0.8392 | 794.64 ± 0.84 | 790.27 ± 0.85 | 782.38 ± 0.86 | 769.54 ± 0.89 | – | 0.797 ± 0.009 | 0.708 ± 0.008 | 0.631 ± 0.008
x2 = 0.8444 | – | – | – | – | 0.868 ± 0.009 | – | – | –
x2 = 0.8643 | 791.35 ± 0.84 | 786.94 ± 0.84 | 778.83 ± 0.86 | 766.42 ± 0.89 | – | 0.797 ± 0.009 | 0.706 ± 0.008 | 0.626 ± 0.008
x2 = 0.8873 | – | – | – | – | 0.875 ± 0.009 | – | – | –
x2 = 0.9033 | 786.15 ± 0.84 | 781.75 ± 0.84 | 773.3 ± 0.86 | 761.57 ± 0.88 | – | 0.801 ± 0.009 | 0.704 ± 0.008 | 0.619 ± 0.008
x2 = 0.9348 | – | – | – | – | 0.889 ± 0.009 | – | – | –
x2 = 0.9532 | 779.63 ± 0.84 | 775.19 ± 0.84 | 766.22 ± 0.86 | 755.42 ± 0.88 | – | 0.805 ± 0.009 | 0.7 ± 0.008 | 0.611 ± 0.008
x2 = 0.9741 | – | – | – | – | 0.898 ± 0.009 | – | – | –
x2 = 0.9823 | 775.75 ± 0.84 | 771.51 ± 0.84 | 762.08 ± 0.86 | 751.98 ± 0.88 | – | 0.805 ± 0.009 | 0.698 ± 0.008 | 0.607 ± 0.008
